Reference: PubChem BioAssay AID179 (DTP/NCI, 2004)
Values joined by “and” are separate entries in the source; they are usually repeats but may differ in a detail not shown here. Identical values can stand only once. Active and inactive are the calls of the source.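 The calls were made as follows: active = compounds giving half or more protection of infected cells from virus-caused growth loss, again on retest; inactive = the rest.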

Tested on: CEM cells HIV-1 protection, formazan growth assay
Assay: NCI AIDS Antiviral Assay
Conditions: for IC50: measured here: growth of uninfected CEM cells
Method in brief: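 Screen of anti-HIV-1 activity in human CEM cells using a formazan-based growth measurement at five drug concentrations. Hits with 50% or greater protection were repeated, and confirmation required reproducible complete protection.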

| SMILES | EC50 | IC50 | outcome |
| --- | --- | --- | --- |
| CC(C)c1ccccc1NC(=O)CCc1n[nH]c(=S)o1 | > 324 µM | > 324 µM | – |
| N#C/C(=C\c1ccc(O)c(O)c1)C(=S)NCc1ccccc1 | > 200 µM | 32.4 µM | – |
| O=C(O)CC(NC(=O)/C(=C/c1ccccc1O)NC(=O)c1ccccc1)C(=O)O (stereo not drawn) | > 200 µM | 110 µM | – |
| O=C(O)c1cc(Br)cc(SSc2cc(Br)cc(C(=O)O)c2O)c1O | 102 µM | 107 µM | – |
| CCOC(=O)c1cc(C)nc2c1c(=O)n(-c1ccccc1)c(=O)n2CCCCN1CCN(c2ncccn2)CC1 | > 200 µM | 107 µM | – |
| Clc1cc(Cl)nc(Nc2ccc3c(c2)CCC3)n1 | > 200 µM | 28.2 µM | – |
| O=c1[nH]nc(-c2ccccc2)n1Nc1ccccc1 | > 200 µM | > 200 µM | – |
| CCNCC(=O)O[C@]1(CC)C(=O)OCc2c1cc1n(c2=O)Cc2cc3ccccc3nc2-1 | > 10 µM | 0.0708 µM | – |
| CC(=O)NCCCCN(CCCNC(C)=O)C(=O)CNS(=O)(=O)c1cccc2c(N(C)C)cccc12 | > 200 µM | > 200 µM | – |
| C=C(COCO)C(C)=O | > 200 µM | 1.45 µM | – |
| C=C(CCC(Cl)C(COC)OC(CCC)OCC)[Si](C)(C)C (stereo not drawn) | > 38.9 µM | > 38.9 µM | – |
| CC(=O)Nc1ccc(S(=O)(=O)Nc2ccc([N+](=O)[O-])cc2)cc1 | > 200 µM | > 200 µM | inactive |
| COc1cccc2c1OC(=O)NC2O (stereo not drawn) | – | – | inactive |
| COc1ccc(-n2nnnc2C2(Nc3ccccc3)CCN(Cc3ccccc3)CC2)cc1 | > 200 µM | > 200 µM | – |
| O=C1C(C(O)(C(F)(F)Cl)C(F)(F)Cl)CCCC1C(O)(C(F)(F)Cl)C(F)(F)Cl (stereo not drawn) | > 200 µM | 10 µM | – |
| COc1ccc(CCNC(=O)Cc2cc(OC)c(OC)cc2CO)cc1OC | > 200 µM | 195 µM | – |
| CC(C)(C)OC(=O)N1CCCC1C(=O)NCCNc1ccc(NCCNC(=O)C2CCCN2C(=O)OC(C)(C)C)c2c1C(=O)c1ccccc1C2=O (stereo not drawn) | > 151 µM | 6.61 µM | – |
| O=[N+]([O-])c1ccc(C=C2C=CN(CCO)C=C2)cc1 | > 200 µM | > 200 µM | – |
| COc1ccc2nc3cc(Cl)ccc3c(NCCC(=O)OCC(O)C(O)C(O[C@H](C)C(=O)NC(C)C(=O)NC(CCC(N)=O)C(=O)OCc3ccccc3)C(C=O)NC(C)=O)c2c1 (stereo partly drawn) | 0.955 µM | 4.68 µM | – |
| O=C1c2ccccc2C2(c3ccc(Cl)cc3)N[C@@H]3CCCC[C@@H]3N12 (stereo partly drawn) | > 200 µM | > 200 µM | – |

| SMILES | EC50 | IC50 | outcome |
| --- | --- | --- | --- |
| NNc1nncc2[nH]cnc12 | > 200 µM | > 200 µM | – |
| O[C@H]1[C@H](O)[C@@H](O)CN2CC[C@H](O)[C@H]12 | 204 µM | 1260 µM | – |
| COC(=O)C(C(=O)C(=O)Nc1cccc([N+](=O)[O-])c1)c1nc2ccc([N+](=O)[O-])cc2[nH]c1=O (stereo not drawn) | > 550 µM | 309 µM | – |
| Cc1[nH]c2ccccc2c1C(=O)CC1(O)C(=O)Nc2c(Cl)cc(Cl)cc21 (stereo not drawn) | > 339 µM | 158 µM | – |
| COC(=O)[C@H](Cc1ccccc1)NP(=O)(O)OCC1OC(n2cc(C)c(=O)[nH]c2=O)CC1N=[N+]=[N-] (stereo partly drawn) | 0.0251 µM | 10 µM | – |
| COC(=O)C1=C(C(=O)OC)C2(c3ccccc3)c3ccccc3C(=O)C1N2C1CCCCC1 (stereo not drawn) | > 200 µM | 16.6 µM | – |
| COc1cc(/C=C2/C(=O)N(C(=O)c3ccc(Cl)cc3)N=C2C)cc(OC)c1OC | > 17.4 µM | > 17.4 µM | – |
| CC1=Nc2ccccc2S/C1=C(/C)NNS(=O)(=O)c1ccc(C)cc1 | > 53.7 µM | > 53.7 µM | – |
| Cc1cn(C2CC(F)C(COC(=O)CCCCCCCCCCCN=[N+]=[N-])O2)c(=O)[nH]c1=O (stereo not drawn) | 0.000631 µM | 2 µM | – |
| O=C(O)c1cc2ccccc2c(I)c1O | > 200 µM | 105 µM | – |
| CCOC(=O)C(=O)Nc1c(C)cccc1C | > 1120 µM | > 1120 µM | – |
| COc1cc(O)c2cc1Oc1ccc(cc1)CC1c3cc(c(OC)cc3CCN1C)Oc1c(OC)c(OC)c(OC)c3c1[C@H](C2)N(C)CC3 (stereo partly drawn) | – | – | inactive |
| CC(=O)OC12CC(C(F)(F)F)(C(F)(F)F)OC1(OC(C)=O)CC(C(F)(F)F)(C(F)(F)F)O2 (stereo not drawn) | – | – | inactive |
| COC(=O)/C=C(C)/C=C\COC1CCCCO1 (stereo not drawn) | > 200 µM | > 200 µM | – |
| O=C1C2CCCC3CCCC(C(=O)N1NC1CCCCC1)C32 (stereo not drawn) | > 200 µM | 107 µM | – |
| COc1cccc(/C=N/NC(=O)c2ccccc2[O-])c1[O-].[Cu+2].[OH3+] | > 200 µM | > 200 µM | – |
| Cc1cn([C@H]2C[C@@H](N(O)C(=O)Nc3ccccc3)[C@@H](CO)O2)c(=O)[nH]c1=O | > 200 µM | > 200 µM | – |
| CCOC(=O)/C(=N/Nc1ccccc1)N1C(=S)C=C(C)NN(C)C1=S | > 200 µM | > 200 µM | – |
| CCOC(=O)c1c(-c2ccc(O)c(OC)c2)c(C#N)c(=S)n(C2OC(CO)C(O)C(O)C2O)c1-c1ccccc1 (stereo not drawn) | > 200 µM | > 200 µM and 117 µM | – |
| CC(N)CNCC(C)N (stereo not drawn) | > 200 µM | > 200 µM | – |
